Biological target: T1, MAP2K6 (MKK6) S207E T211E (Homo sapiens, UniProt P52564, S207E/T211E)
T1 construct: purchased Thermo Fisher Scientific (Life Technologies) SelectScreen
Experiment: SelectScreen LanthaScreen
Type: binding
Conditions: read-out: % displacement
Outline: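 SelectScreen broad panel; activity (Z'LYTE, Adapta) plus binding formats. ATP: Km app for CSF1R Z'LYTE; 10 for CAMK1 Adapta. Readout = % per kinase.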

T1 sequence (P52564 whole entry S207E/T211E): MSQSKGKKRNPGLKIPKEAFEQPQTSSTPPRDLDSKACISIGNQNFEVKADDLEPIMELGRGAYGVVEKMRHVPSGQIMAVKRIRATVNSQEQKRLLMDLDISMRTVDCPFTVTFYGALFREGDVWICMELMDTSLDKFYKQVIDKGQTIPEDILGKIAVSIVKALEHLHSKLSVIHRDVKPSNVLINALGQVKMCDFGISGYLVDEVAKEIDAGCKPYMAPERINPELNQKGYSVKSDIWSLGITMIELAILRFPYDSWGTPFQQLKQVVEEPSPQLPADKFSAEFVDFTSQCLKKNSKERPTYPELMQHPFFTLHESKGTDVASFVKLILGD

## CN(C(=O)CN1CCOCC1)c1ccc2sc3c(-c4cccc5c(=O)cc(N6CC7CCC(C6)O7)oc45)cccc3c2c1 [NU5455]
  inhibition at 1 µM: -4.9%
